{
  "source": "patent US7252953B2",
  "about": "“Method of detecting and preventing Alzheimer's disease, particularly at prodromal and early stages” (United States of America Department of Veterans Affairs, priority 2002, dated 2007)",
  "key": {"[Ca^2+]i": {"tested_on": "[Ca^2+]i", "assay": "Ca2+ imaging (Fluo-4) in microglial cells", "format": "cell-based, murine", "conditions": "sAβ-pretreated cells (500 nM sAβ1-42), then 100 nM thrombin", "experimental": "(§1) Primary microglial cultures were prepared from neonatal mouse (C57BL6) brains as previously described (Reference 29) and maintained in Delbecco's modified Eagle's medium with F-12 nutrient mixture (DMEM/F12) containing 10% fetal bovine sera (FBS) and antibiotics. N9 clonal murine microglial cell cultures were maintained in Iscoves modified Delbecco's medium (IMDM) containing 5% heat-inactivated FBS, 2 mM L-glutamine, 50 μM 2-mercaptoethanol and antibiotics. Treatment of both primary and N9 microglial cells were performed under serum-free conditions. Freshly solublized Aβ (BioSource, Camarillo, Calif.) peptides were prepared and characterized as previously described (References 30 and 44) and were used in all in vitro experiments. Unless specified, cells were always pretreated with sAβ for 5 min and then followed by challenge with α-thrombin (100 nM or as indicated), glutamate (2 mM) or LPS (5 ng/ml).\nWe measured [Ca^2+]i in microglial cells using Fluo-4 (2 μM) with the aid of a Nikon BioRadiance triple laser scanning confocal microscope. Image collection, quantification and data analysis were performed as previously described (Reference 29).\n(§2) In previous studies, we found thrombin signaling via PARs in microglial cells involving [Ca^2+]i increase and transient activation of both p38 and p44/42 mitogen-activated protein kinases (MAPKs) (Reference 29). To understand potential consequences of GRK dysfunction induced by sAβ, for these studies we also assessed changes in thrombin signaling in sAβ-pretreated microglial cells.\n(§3) FIG. 5A, N9 microglial cells were pre-treated with 500 nM sAβ1-42 (arrow “1”) followed by 100 nM thrombin treatment (arrow “2”). Changes in [Ca^2+]i were measured as previously described (Reference 29) from three separate experiments. […] For both FIGS. 5B and 5C, lane M=Marker, 1=Control (0 min), 2=Control (25 min), 3=Aβ1-42 (25 min), 4=Thrombin (20 min), 5=Aβ1-42+thrombin (20 min post-Aβ), 6=Control (24 h), 7=Aβ1-42 (24 h), 8=Thrombin (24 h) and 9=Aβ1-42+thrombin (24 h post-Aβ). “P” and “T” indicate phosphorylated and total p38 or p44/42 MAPKs, respectively."}, "[1]": {"tested_on": "fibrillar actin (F-actin)", "assay": "Phalloidin staining of F-actin in microglial cells", "format": "cell-based, murine", "experimental": "Microglial cells were seeded onto poly-L-lysine-coated 8-chamber slides at a density of 1×10^4/well. After various treatments, cells were immediately fixed with pre-chilled (4° C.) 5% acetic acid in methanol for 45 min at 4° C., followed by washing with PBS. The fixed cells were blocked and double-stained with phalloidin-FITC (1:1,000) and anti-GRK5 (1:500) or GRK2 (1:500). Secondary antibody-Cy3 conjugates (1:500) staining, washing, mounting and confocal microscopic visualization were performed routinely as previously described (Reference 29).\nMicroglial-mediated inflammation is an important pathological component of AD (Reference 28). […] Thrombin, a serine protease is known to activate protease-activated GPCRs, (PARs) such as PAR1 (Reference 29) and PAR4 in microglia. The sAβ preparation used in this study has been previously characterized as composed principally of conformational intermediates by CD-spectrum (Reference 30) and a mixture of monomeric and oligomeric Aβ by Western blotting."}, "TNF-α [2]": {"tested_on": "TNF-α", "assay": "TNF-α release in primary mouse brain microglial cultures", "format": "cell-based", "experimental": "as §1\n(§4) TNF-α production in microglial culture media was measured and standardized as previously described (Reference 29).\n(§5) Given our results that sAβ disrupts GRK function and inhibits GPCR desensitization in microglia, we next investigated whether such signaling dysregulation might lead to cellular functional changes in microglia. Both primary and N9 clonal murine microglial cultures were used and TNF-α secretion in culture media was measured as an outcome. […] Moreover, the potentiation effect of sAβ on thrombin and glutamate-induced microglial activation was dose-dependent, with a minimal effective concentration (ECmin) of 20 nM and a maximal EC (ECmax) of 500 nM. Furthermore, the enhancement effect was not observed if sAβ was given after (10 min) thrombin or glutamate treatments. […] Together with the evidence that sAβ inhibits GRK-GPCR interactions and causes prolongation of GPCR signaling, we conclude that sAβ, by disrupting GRK function, alters microglial reactivity to specific GPCR activators.\nFIG. 6A, pretreatment with sAβ1-42 potentiated (p<0.01) TNF-α release induced by increasing doses of thrombin (Thr) as indicated from primary mouse brain microglial cultures. n=4. […]"}, "p38 MAPK": {"tested_on": "p38 MAPK", "assay": "p38 MAPK phosphorylation in microglial cells (WB)", "format": "cell-based, murine", "experimental": "as §1\n(§6) Cultured cells were lysed in pre-chilled 2×IP buffer I (Tris, 20 mM, pH 7.4; NaCl, 300 mM; EDTA, 2 mM; 2 mM EGTA, pH 8.0; 0.4 mM sodium ortho-vanadate, 2% Triton X-100; 1% NP-40; 0.4 mM PMSF) supplemented both with phosphatase and protease inhibitor cocktails. After centrifugation, the supernatants were collected and total protein concentrations were determined by the bicinchoninic acid assay (BCA). Equal amounts (250 μg) of cell lysates from each group were mixed with 20 μl (˜5 μg) of either PAR1 or PAR4 antibodies, and brought to a total volume of 1 ml in 1×IP buffer. Following a 1 hour incubation at 4° C., appropriate secondary antibody-agarose conjugates were added followed by incubation (30 min with agitation), centrifugation and sufficient washes. The pellets were resuspended in 30 μl of electrophoresis sample buffer and boiled for 5 min. The supernatants were directly used for polyacrylamide sodium dodecyl sulfate gel electrophoresis (SDS-PAGE) and WB analysis. To prepare subcellular fractions of brain samples, we homogenized fresh or fresh-frozen tissues in Tris buffered saline solution (Tris, 10 mM, pH 7.4; NaCl, 150 mM; EDTA, 1 mM; 1 mM EGTA, pH 8.0; 0.2 mM sodium ortho-vanadate) supplemented with protease inhibitor cocktails. After centrifugation (12,000 g at 4° C. for 15 min), the supernatants were collected as cytosolic fractions. The pellets were resuspended in 1×IP buffer containing protease inhibitor cocktail. Following brief sonication and centrifugation (12,000 g at 4° C. for 15 min), the supernatants were collected as membrane fractions. Both antibodies to GRK2 and GRK5 (Santa Cruz) were diluted 1:500 for WB, other routine procedures, WB for total and phospho-p44/42 MAPK, and semi-quantitative analysis of protein band density were performed as previously described (Reference 29).\nas §2, §3"}, "p44/42 MAPK": {"tested_on": "p44/42 MAPK", "assay": "p44/42 MAPK phosphorylation in microglial cells (WB)", "format": "cell-based, murine", "experimental": "as §1, §6, §2, §3"}, "PARs-GRKs binding": {"tested_on": "PARs-GRKs binding", "assay": "Inhibition of GRK-PAR binding by sAβ-pretreatment in microglial cells (IP and WB, all examined PARs and GRKs)", "format": "cell-based, murine", "conditions": "sAβ1-42 500 nM pretreatment 5 min, then 100 nM thrombin 30 seconds", "experimental": "as §1, with “Unless specified, cells were always pretreated with sAβ for 5 min and then followed by challenge with α-thrombin (100 nM or as indicated), glutamate (2 mM) or LPS (5 ng/ml).” left out\nCultured cells were lysed in pre-chilled 2×IP buffer I (Tris, 20 mM, pH 7.4; NaCl, 300 mM; EDTA, 2 mM; 2 mM EGTA, pH 8.0; 0.4 mM sodium ortho-vanadate, 2% Triton X-100; 1% NP-40; 0.4 mM PMSF) supplemented both with phosphatase and protease inhibitor cocktails. After centrifugation, the supernatants were collected and total protein concentrations were determined by the bicinchoninic acid assay (BCA). […] Both antibodies to GRK2 and GRK5 (Santa Cruz) were diluted 1:500 for WB, other routine procedures, WB for total and phospho-p44/42 MAPK, and semi-quantitative analysis of protein band density were performed as previously described (Reference 29). […]"}, "TNF-α [3]": {"tested_on": "TNF-α", "assay": "TNF-α release in N9 clonal murine microglial cells", "format": "cell-based", "experimental": "as §1, §4, §5\nFIG. 6A, pretreatment with sAβ1-42 potentiated (p<0.01) TNF-α release induced by increasing doses of thrombin (Thr) as indicated from primary mouse brain microglial cultures. n=4. […] The ECmin and ECmax for sAβ's potentiation are approximately 20 nM and 500 nM, respectively. n=6."}, "[4]": {"conditions": "sAβ pretreatment (5 min) followed by thrombin, within 20 min post-Aβ treatment"}, "[5]": {"conditions": "sAβ-pretreatment followed by thrombin, 24 h"}, "[6]": {"conditions": "substance alone, within 20 min post-Aβ treatment"}, "[7]": {"conditions": "5 min pretreatment, N9 cells, FIG. 6B"}},
  "note": "Entries after “also recorded” stand apart in the source; their conditions may differ.",
  "data": [
    {"substance": "sAβ: Soluble β-amyloid, chain length not stated at the place; sAβ1-42 (500 nM) in Examples 3-6", "values": [
      {"measurement": "[Ca^2+]i reached by the subsequent slow climb, without decrease", "setting": "[Ca^2+]i", "value": "greater than 450 nM"},
      {"measurement": "formation of fibrillar actin (F-actin)", "setting": "[1]", "value": "caused rapid formation of fibrillar actin (F-actin)"},
      {"measurement": "effect of sAβ pretreatment on thrombin-induced TNF-α release", "setting": "TNF-α [2]; 5 min pretreatment, FIG. 6A", "value": "significantly potentiated"},
      {"measurement": "TNF-α release induced by sAβ alone", "setting": "TNF-α [2]; nM concentrations", "value": "insufficient to induce significant TNF-α release"},
      {"measurement": "p38 MAPK phosphorylation", "setting": "p38 MAPK; [4]", "value": "increased phosphorylation"},
      {"measurement": "p38 MAPK phosphorylation", "setting": "p38 MAPK; [5]", "value": "remained elevated; also recorded: persistent phosphorylation"},
      {"measurement": "p38 MAPK phosphorylation", "setting": "p38 MAPK; substance alone, 24 h", "value": "returned to basal levels"},
      {"measurement": "p38 MAPK phosphorylation", "setting": "p38 MAPK; [6]", "value": "increased phosphorylation"},
      {"measurement": "p44/42 MAPK phosphorylation", "setting": "p44/42 MAPK; [4]", "value": "increased phosphorylation"},
      {"measurement": "p44/42 MAPK phosphorylation", "setting": "p44/42 MAPK; [5]", "value": "remained elevated; also recorded: persistent phosphorylation"},
      {"measurement": "p44/42 MAPK phosphorylation", "setting": "p44/42 MAPK; substance alone, 24 h", "value": "returned to basal levels"},
      {"measurement": "p44/42 MAPK phosphorylation", "setting": "p44/42 MAPK; [6]", "value": "increased phosphorylation"},
      {"measurement": "binding of all examined PARs to GRKs after thrombin in sAβ-pretreated cells", "setting": "PARs-GRKs binding", "value": "essentially abolished; also recorded: almost completely abolished"},
      {"measurement": "effect of sAβ pretreatment on LPS-induced TNF-α release", "setting": "TNF-α [3]; [7]", "value": "not"},
      {"measurement": "effect of sAβ pretreatment on glutamate-induced TNF-α release", "setting": "TNF-α [3]; [7]", "value": "significantly potentiated"},
      {"measurement": "effect of sAβ pretreatment on thrombin-induced TNF-α release", "setting": "TNF-α [3]; [7]", "value": "significantly potentiated"},
      {"measurement": "TNF-α release induced by sAβ alone", "setting": "TNF-α [3]; nM concentrations, N9 clonal microglial cultures", "value": "insufficient to induce significant TNF-α release; also recorded: not significant"},
      {"measurement": "maximal EC (ECmax) of sAβ's potentiation", "setting": "TNF-α [3]; potentiation of thrombin- and glutamate-induced TNF-α release", "value": 500, "unit": "nM"},
      {"measurement": "enhancement of TNF-α release when sAβ is given after thrombin or glutamate (post-treatment)", "setting": "TNF-α [3]; sAβ given 10 min after thrombin or glutamate", "value": "not observed"}
    ]}
  ]
}
